Test results from patent US12533350B2, “Use of melanocortin-1 receptor agonist” (TANABE PHARMA CORPORATION, priority 2022, dated 2026).

Experiments:
[1] = test system: dermal fibroblasts from healthy donors; assay: TGF-β-induced human fibroblast activation, healthy donors; assay type: cell-based; settings: TGF-β 10 ng/mL, 24 hours
Source text: (§1) Full-thickness skin biopsies were obtained from clinically involved skin of patients affected by dcSSc, who were recruited from the Systemic sclerosis clinic within the Leeds Institute of Rheumatic and Musculoskeletal Medicine (UK). Control skin samples were from healthy donors. All patients with dcSSc and healthy donors provided written informed consent through the stratification for risk of progression in systemic sclerosis (STRIKE SSC), which had been approved by the North-East Research Ethic committee. Patients with SSc fulfilled the 2013 ACR/EULAR classification criteria for SSc and were classified as having dcSSc according to the LeRoy and Medsger criteria.
Dermal fibroblasts were isolated from the skin biopsy samples of healthy donors and SSc patients. The skin biopsy samples were minced with a scalpel, placed in plastic culture dishes and covered with Dulbecco's Modified Eagle Medium (DMEM) with 4.5 g/L glucose (Thermo Fisher Scientific) supplemented with 20% fetal calf serum (FCS, Thermo Fisher Scientific), 1% penicillin and streptomycin (Merck), and 1 μg/ml of amphotericin (Thermo Fisher Scientific) and cultured at 37° C. in a humidified atmosphere of 5% CO2. Additional growth medium was added after 3 days with no amphotericin. After 7 days, culture medium was replaced with medium containing 10% FCS and subsequently replenished every 2 to 3 days. When a visible outgrowth of cells was obtained, the fibroblasts were passaged. Briefly, cells were incubated with PBS containing 0.1% EDTA for 5 min, and then detached with trypsin-EDTA solution (Merck), and cultured until 70-80% confluent in DMEM (1 g/L glucose) supplemented with 10% FCS and 1% penicillin and streptomycin. After a subsequent passage, primary cells were retrovirally immortalized using human telomerase reverse transcriptase. […]
(§2) Total RNA was extracted using the Zymo quick RNA mini prep kit according to manufacturer's instructions (Zymo Research Corporation). […] Quantitative RT-PCR was performed in triplicates using SYBR Green RT-PCR Mastermix Kit (Thermo Fisher Scientific) and the ABI PRISM 7500 Fast Real Time PCR System (Applied Biosystems). […]
FIGS. 5(A)-5(B) show the effect of Compound A on human fibroblast activation. Dermal fibroblasts from a healthy individual or an SSc patient were grown to confluence, and placed under starvation for 24 hours in a medium supplemented with 1% fetal bovine serum (A: mRNA expression of ACTA2 and COL1A1 in dermal fibroblasts of healthy individuals was measured by real-time PCR, and normalized for the GAPDH expression level. B: mRNA expression of ACTA2 and COL1A1 in dermal fibroblasts of SSc patients was measured for by real-time PCR, and normalized for the GAPDH expression level). Each bar represents the mean±SEM of the measured values from three wells. […]

[2] = test system: dermal fibroblasts from SSc patients; assay: TGF-β-induced human fibroblast activation, SSc patients; assay type: cell-based; settings: concentration of 1000 nmol/L; TGF-β 10 ng/mL, 24 hours
Source text: as §1
Dermal fibroblasts were isolated from the skin biopsy samples of healthy donors and SSc patients. […]
as §2
FIGS. 5(A)-5(B) show the effect of Compound A on human fibroblast activation. […] Each bar represents the mean±SEM of the measured values from three wells. […]

[3] = test system: bleomycin (BLM)-induced systemic sclerosis (SSc) model: skin fibrosis and lung inflammation
Experimental: The back of mice was shaved, and the middle of the back was marked with oil-based red ink. Phosphate-buffered saline (PBS) or BLM (Nippon Kayaku) (0.15 mg/0.1 mL per animal) was subcutaneously injected at the marked site once daily from day 0 to day 25. Compound A solutions at 0.1 mL/10 g of body weight were orally administered once daily (approximately 2 hours before the BLM injection) for 29 consecutive days from day 0 until the day before the end of evaluation (day 28).
On day 29, mice were euthanized by inhalation anesthesia with isoflurane, and whole blood and back skin samples were collected. The left lung was dissected, weighed, and immersed in RNAlater solution (Qiagen). The collected blood was separated into serum. The injection site of skin was excised, weighed (wet weight) and immersed in 0.5 mol/L acetic acid solution containing 0.3 mg/mL pepsin to solubilize collagen. The collagen content of the solubilized sample was explored using the QuickZyme Soluble Collagen Assay kit (QuickZyme Biosciences), and absorbance was determined by a microplate reader (VERSAmax, Molecular Devices, LLC). Serum levels of surfactant protein D (SP-D) were assayed using the Rat/Mouse SP-D kit YAMASA EIA (Yamasa Corporation), and absorbance was determined by a microplate reader (VERSAmax, Molecular Devices, LLC). Total RNA of lungs was isolated using RNeasy 96 Universal Tissue Kit (Qiagen) according to the manufacturer's instructions. Real-time PCR was performed using the One Step SYBR PrimeScript PLUS RT-PCR Kit (Takara Bio Inc.) and ABI PRISM 7900HT Real Time PCR System (Applied Biosystems). Takara perfect real time primer pairs (Takara Bio Inc.) were used to analyze the gene expression of chemokine Cc12 (also named as monocyte chemotactic protein-1 (Mcp-1, MA066003)), interleukin-6 (IL-6, MA039013), and hypoxanthine phosphoribosyltransferase (Hprt, MA031262). Quantification was performed using the comparative CT (cycle threshold) method employing Hprt as the housekeeping gene. A serum concentration of endothelin 1 (ET-1) was assayed using Quantikine Endothelin-1 (R & D systems) and the absorbance was measured by the microplate reader (VERSAmax, Molecular Devices, LLC).
Therefore, differences in body weight at each time point were analyzed between the PBS_vehicle and BLM_vehicle groups using Student's t test.

[4] = Compound A at ≥0.3 mg/kg orally once daily day 0-28, measured day 29
[5] = Compound A at ≥0.3 mg/kg orally once daily day 0-28, measured day 29, relative to Hprt

COC[C@H]1CN(C(=O)[C@]2(F)CN(C3CCCC3)C[C@H]2c2ccc(OC)cc2)C[C@@H]1c1ccc(C(F)(F)F)cc1N1CCC(C(=O)O)CC1 [Compound A, 1-{2-[(3S,4R)-1-{[(3R,4R)-1-cyclopentyl-3-fluoro-4-(4-methoxyphenyl)pyrrolidin-3-yl]carbonyl}-4-(methoxymethyl)pyrrolidin-3-yl]-5-(trifluoromethyl)phenyl}piperidine-4-carboxylic acid]
TGF-β-induced αSMA (ACTA2) mRNA elevation ([1]; concentration-dependent, normalized to GAPDH): inhibited | TGF-β-induced COL1A1 mRNA expression ([1]; normalized to GAPDH): no effect | TGF-β-induced increase in αSMA mRNA expression ([1]; concentration of 1000 nmol/L): suppressed | TGF-β-induced increase in αSMA mRNA expression [2]: suppressed | BLM-induced increase of collagen content of the skin [3, 4]: inhibited significantly | BLM-induced increase of serum concentration of ET-1 [3, 4]: inhibited significantly | BLM-induced increase of serum level of SP-D [3, 4]: inhibited significantly | BLM-induced increase of wet weight of the left lung [3, 4]: inhibited significantly | BLM-induced increase of IL-6 mRNA expression in the lung [3, 5]: inhibited significantly | BLM-induced increase of Mcp-1 mRNA expression in the lung [3, 5]: inhibited significantly | BLM-induced decrease of body weight ([3]; Compound A at ≥0.3 mg/kg orally once daily, day 0 to day 29): significantly improved
